{"source": "patent US20220098196A1", "about": "“TRAPPING-FREE PARP INHIBITORS” (The Board of Regents of the University of Texas System, priority 2019, published 2022)", "key": {"PARP1 [1]": {"biological_target": "T1, PARP1 (Homo sapiens, UniProt P09874)", "T1 sequence (P09874 whole entry)": "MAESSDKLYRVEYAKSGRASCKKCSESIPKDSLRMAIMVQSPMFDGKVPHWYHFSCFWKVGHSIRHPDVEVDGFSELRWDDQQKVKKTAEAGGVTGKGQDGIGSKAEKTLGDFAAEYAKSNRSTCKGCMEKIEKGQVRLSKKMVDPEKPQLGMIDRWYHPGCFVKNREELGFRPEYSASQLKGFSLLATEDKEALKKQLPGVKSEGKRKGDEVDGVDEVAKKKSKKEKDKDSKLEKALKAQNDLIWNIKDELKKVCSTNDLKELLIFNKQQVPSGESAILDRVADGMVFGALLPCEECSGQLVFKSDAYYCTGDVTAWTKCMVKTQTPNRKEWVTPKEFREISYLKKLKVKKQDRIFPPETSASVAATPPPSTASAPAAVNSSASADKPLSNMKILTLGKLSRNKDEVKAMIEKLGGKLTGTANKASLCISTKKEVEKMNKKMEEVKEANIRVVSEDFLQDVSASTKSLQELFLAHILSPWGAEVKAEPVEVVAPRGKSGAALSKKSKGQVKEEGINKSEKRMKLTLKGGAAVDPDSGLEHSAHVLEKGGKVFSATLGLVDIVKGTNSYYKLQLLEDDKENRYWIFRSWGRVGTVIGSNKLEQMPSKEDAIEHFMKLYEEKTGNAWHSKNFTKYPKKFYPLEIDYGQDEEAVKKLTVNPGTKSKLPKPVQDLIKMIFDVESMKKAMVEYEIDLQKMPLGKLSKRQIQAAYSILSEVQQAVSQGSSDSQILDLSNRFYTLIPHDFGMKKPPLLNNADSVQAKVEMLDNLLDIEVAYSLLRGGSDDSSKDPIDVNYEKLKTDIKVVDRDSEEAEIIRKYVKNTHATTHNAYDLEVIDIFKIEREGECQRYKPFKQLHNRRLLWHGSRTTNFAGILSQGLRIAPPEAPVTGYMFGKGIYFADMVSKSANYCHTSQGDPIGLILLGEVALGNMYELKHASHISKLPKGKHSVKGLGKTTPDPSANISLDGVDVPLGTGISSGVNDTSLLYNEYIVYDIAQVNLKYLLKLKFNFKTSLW", "assay": "PARP1 degradation in HeLa cells (immunoblotting)", "assay_type": "cell-based", "design": "host or cells: HeLa", "details": "24 hours; for effect on iRucaparib-induced PARP1 degradation: iRucaparib 5 μM plus MG132 (1 μM), Rucaparib (1 μM) or increasing pomalidomide; for PARP1 degradation: increasing concentrations", "protocol": "(§1) Immunoblotting. Cells were washed once with cold PBS and lysed with the SDS lysis buffer (1% SDS, 10 mM HEPES pH 7.0, 2 mM MgCl2, 500 U universal nuclease). Protein concentrations were determined by the BCA assay kit (Thermo Fisher Scientific). A total of 20 μg proteins (40 μg proteins for PAR immunoblotting experiments) were loaded onto the SDS-PAGE gel and were then transferred to a nitrocellulose membrane. Nitrocellulose membranes were then blocked with the TBST buffer containing 5% milk (Bio-Rad). Membranes were incubated with the primary antibodies overnight at 4° C. and the secondary antibodies for 1 hour at room temperature (RT). The blots were developed using enhanced chemiluminescence and were exposed on autoradiograph films."}, "PARP1 [2]": {"biological_target": "T1, PARP1", "assay": "PARP1 degradation in VHL-proficient (BT-549, PC-3) and VHL-deficient (786-O) cells (immunoblotting)", "assay_type": "cell-based", "design": "host or cells: MDA-MB-468; BT-549; PC-3; 786-O", "details": "24 hours", "protocol": "as §1"}, "PARP1 [3]": {"biological_target": "T1, PARP1", "assay": "PARP1 trapping in HeLa cells (subcellular fractionation, chromatin-bound fraction)", "assay_type": "cell-based", "design": "host or cells: HeLa", "details": "5 μM for all compounds, MMS 0.01%", "experimental": "Subcellular Proteins Extraction. […] The cytosolic proteins were isolated by incubating the cells with the CEB buffer for 10 min at 4° C., and centrifuged at 500 g for 5 min. The membrane proteins were isolated by incubating the pellet from previous step with the MEB buffer for 10 min at 4° C., and centrifuged at 3000 g for 5 min. The soluble nuclear proteins were isolated by incubating the pellet from previous step with the NEB buffer for 30 min at 4° C., and centrifuged at 5000 g for 5 min. The chromatin bound proteins were isolated by incubating the pellet from previous step with the NEB buffer supplemented with nuclease for 15 min at RT and centrifuged at 16000 g for 5 min. Protein concentrations were determined by the BCA assay kit."}, "PARP1 [4]": {"biological_target": "T1, PARP1", "assay": "In Vitro PARP1 Activity Assay (PARP universal chemiluminescent assay kit)", "assay_type": "biochemical", "details": "in vitro", "experimental": "In Vitro PARP1 Activity Assay. […] Briefly, the histone-coated strip wells were hydrated with the assay buffer for 30 min. The various compounds were added and were incubated with the PARP enzyme for 10 min. The reaction cocktail containing biotinylated NAD^+ was then added into the system, which was incubated for 1 hour to activate PARP1. After the reaction, the wells were washed twice with 0.1% Triton X-100/PBS and twice with PBS. The wells were incubated with Strep-HRP for another hour and were washed again as described above. PeroxyGlow reagents were mixed and added into the strip wells, and the biotin signal on coated histone was immediately measured with chemiluminescence on a Synergy microplate reader (Bio-Tek). The well without PARP1, and the well with PARP1 only was used as the negative (0%) and positive (100%) control, respectively."}, "ZFP91": {"biological_target": "ZFP91 (Homo sapiens, UniProt Q96JP5+Q96SW2)", "sequence (Q16531 2-1140)": "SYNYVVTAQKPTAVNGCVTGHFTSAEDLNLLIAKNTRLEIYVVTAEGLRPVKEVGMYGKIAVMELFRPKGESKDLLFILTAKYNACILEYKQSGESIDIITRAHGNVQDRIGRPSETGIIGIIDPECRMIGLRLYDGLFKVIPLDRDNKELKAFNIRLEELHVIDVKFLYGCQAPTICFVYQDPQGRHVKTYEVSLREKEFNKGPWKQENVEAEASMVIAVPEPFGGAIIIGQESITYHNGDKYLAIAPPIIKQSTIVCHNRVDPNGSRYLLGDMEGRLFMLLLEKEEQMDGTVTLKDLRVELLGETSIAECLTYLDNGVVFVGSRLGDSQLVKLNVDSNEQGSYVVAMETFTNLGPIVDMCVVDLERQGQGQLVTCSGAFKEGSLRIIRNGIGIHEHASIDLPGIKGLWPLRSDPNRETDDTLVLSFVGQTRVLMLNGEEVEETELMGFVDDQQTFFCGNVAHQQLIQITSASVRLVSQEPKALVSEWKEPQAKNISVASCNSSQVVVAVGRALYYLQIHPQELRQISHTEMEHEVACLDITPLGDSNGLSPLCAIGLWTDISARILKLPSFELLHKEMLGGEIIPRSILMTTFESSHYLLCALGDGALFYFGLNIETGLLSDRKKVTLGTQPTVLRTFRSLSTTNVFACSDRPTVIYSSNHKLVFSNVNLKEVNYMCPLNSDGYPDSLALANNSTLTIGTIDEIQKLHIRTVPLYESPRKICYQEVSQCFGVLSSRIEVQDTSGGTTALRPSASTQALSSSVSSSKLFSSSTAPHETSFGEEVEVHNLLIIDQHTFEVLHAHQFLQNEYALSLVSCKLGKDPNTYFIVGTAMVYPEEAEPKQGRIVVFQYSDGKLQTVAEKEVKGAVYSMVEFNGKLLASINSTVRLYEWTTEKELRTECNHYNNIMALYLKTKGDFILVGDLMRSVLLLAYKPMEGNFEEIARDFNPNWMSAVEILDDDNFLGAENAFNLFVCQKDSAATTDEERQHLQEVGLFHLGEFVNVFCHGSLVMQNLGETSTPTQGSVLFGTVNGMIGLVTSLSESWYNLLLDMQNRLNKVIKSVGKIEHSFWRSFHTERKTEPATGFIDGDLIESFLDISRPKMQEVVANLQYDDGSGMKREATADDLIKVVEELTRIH", "sequence (Q96SW2 whole entry)": "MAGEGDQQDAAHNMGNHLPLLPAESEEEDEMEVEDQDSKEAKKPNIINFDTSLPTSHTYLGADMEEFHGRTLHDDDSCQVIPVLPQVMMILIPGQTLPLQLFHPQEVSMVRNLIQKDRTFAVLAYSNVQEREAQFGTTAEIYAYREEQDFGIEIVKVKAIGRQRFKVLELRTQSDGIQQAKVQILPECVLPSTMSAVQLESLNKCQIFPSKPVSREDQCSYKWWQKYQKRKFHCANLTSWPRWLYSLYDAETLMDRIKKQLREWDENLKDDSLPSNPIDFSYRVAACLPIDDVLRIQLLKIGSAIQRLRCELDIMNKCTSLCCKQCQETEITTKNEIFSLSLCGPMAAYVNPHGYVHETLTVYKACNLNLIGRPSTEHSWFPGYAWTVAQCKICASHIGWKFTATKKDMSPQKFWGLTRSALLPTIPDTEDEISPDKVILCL", "sequence (Q96JP5 2-570)": "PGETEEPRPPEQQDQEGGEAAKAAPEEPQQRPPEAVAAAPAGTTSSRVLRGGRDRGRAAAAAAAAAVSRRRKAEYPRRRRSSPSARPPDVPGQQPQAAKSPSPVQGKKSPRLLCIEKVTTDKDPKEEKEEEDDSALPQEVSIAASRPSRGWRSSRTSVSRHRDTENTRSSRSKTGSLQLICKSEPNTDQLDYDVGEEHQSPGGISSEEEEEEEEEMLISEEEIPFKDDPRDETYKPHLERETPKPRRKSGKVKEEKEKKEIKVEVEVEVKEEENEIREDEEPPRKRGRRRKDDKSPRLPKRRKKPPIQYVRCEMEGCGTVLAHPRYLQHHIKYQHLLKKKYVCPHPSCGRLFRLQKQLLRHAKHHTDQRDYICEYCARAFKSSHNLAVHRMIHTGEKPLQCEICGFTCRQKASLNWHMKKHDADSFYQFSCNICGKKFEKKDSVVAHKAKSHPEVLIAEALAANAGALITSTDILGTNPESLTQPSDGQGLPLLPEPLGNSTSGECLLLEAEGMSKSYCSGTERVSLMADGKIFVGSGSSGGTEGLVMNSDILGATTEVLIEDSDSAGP", "assay": "TMT quantitative proteomics in BT-549 cells, ZFP91", "assay_type": "cell-based", "design": "host or cells: HeLa; BT-549", "details": "VHL-Rucaparib 20 μM, 24 hours", "experimental": "Quantitative Mass Spectrometry. […] Two biological replicate samples were prepared for each treatment condition. Cells were washed with cold PBS and lysed using the SDS lysis buffer. Protein concentrations were determined by the BCA assay (Thermo Fisher Scientific). For each sample, 500 μg of protein was used for the subsequent TMT experiments^34.\nFor the TMT experiments, proteins were reduced with 2 mM DTT for 10 min and alkylated with 50 mM iodoacetamide for 30 min in dark. Proteins were then extracted using methanol-chloroform precipitation. Protein pellets were dissolved in 400 μL 8 M Urea buffer (8 M urea, 50 mM Tris-HCl, 10 mM EDTA, pH 7.5) and were digested by Lys-C (Wako, at a 1:100 enzyme/protein ratio) for 2 hours at RT. The urea concentration was then reduced to 2 M using freshly made 100 mM ammonium bicarbonate solution. […]\nSamples were desalted and fractioned by bRPLC (basic pH reversed phase HPLC) on a ZORBAX 300 Extend-C18 column (Narrow Bore RR 2.1 mm×100 mm, 3.5 μm particle size, 300 Å pore size). […] Samples were then analyzed on an Orbitrap Elite mass spectrometer (Thermo Fisher Scientific) using a top 15 HCD (higher-energy collisional dissociation) method.\nThe maximum intensity of each reporter ion was extracted. For each reporter ion channel, the observed signal-to-noise ratio was summed across all quantified proteins and was normalized."}, "PARP1 [5]": {"biological_target": "T1, PARP1", "assay": "TMT quantitative proteomics in BT-549 cells, PARP1", "assay_type": "cell-based", "details": "iRucaparib 5 μM or VHL-Rucaparib 20 μM, 24 hours, 8,207 quantified proteins", "source_text": "Quantitative Mass Spectrometry.\nProteins were then extracted using methanol-chloroform precipitation.\nThe maximum intensity of each reporter ion was extracted."}, "[6]": {"details": "Phase III, patients taking pomalidomide and dexamethasone vs. dexamethasone alone; p=0.0002; cited from earlier work"}}, "note": "Where a SMILES comes first, the peptide text is derived from it. The star is where a group is joined. Cbz = O=C(OCc1ccccc1)*", "data": [{"smiles": "CC(C)C[C@@H](C=O)NC(=O)[C@H](CC(C)C)NC(=O)[C@H](CC(C)C)NC(=O)OCc1ccccc1", "note": "[MG132, reference compound] (Cbz-Leu-Leu-Leu-aldehyde)", "values": [{"measurement": "effect on iRucaparib-induced PARP1 degradation", "setting": "PARP1 [1]", "value": "completely blocked"}, {"measurement": "effect on VHL-Rucaparib-induced PARP1 degradation", "setting": "PARP1 [2]; PC-3 cells, VHL-Rucaparib 10 μM plus MG-132 1 μM", "value": "could be rescued by MG-132 treatment"}]}, {"smiles": "NC(=O)c1cccc2cn(-c3ccc([C@@H]4CCCNC4)cc3)nc12", "note": "[Niraparib]", "values": [{"measurement": "potency in PARP1 trapping (rank order)", "setting": "PARP1 [3]", "value": "BMN673>Niraparib>Olaparib>Rucaparib>Veliparib"}]}, {"smiles": "CN(CCCCc1cn(CCOCCNc2cccc3c2C(=O)N(C2CCC(=O)NC2=O)C3=O)nn1)Cc1ccc(-c2[nH]c3cc(F)cc4c3c2CCNC4=O)cc1", "note": "(centres unmarked) [PEG1, Rucaparib-Triazole-PEG1-Pomalidomide]", "values": [{"measurement": "biochemical (catalytic) inhibition of PARP1", "setting": "PARP1 [4]", "value": "maintained catalytic inhibitory activity against PARP1"}, {"measurement": "PARP1 degradation", "setting": "PARP1 [1]", "value": "not able to degrade PARP1"}]}, {"smiles": "CN(CCCCc1cn(CCOCCOCCNc2cccc3c2C(=O)N(C2CCC(=O)NC2=O)C3=O)nn1)Cc1ccc(-c2[nH]c3cc(F)cc4c3c2CCNC4=O)cc1", "note": "(centres unmarked) [PEG2, Rucaparib-Triazole-PEG2-Pomalidomide]", "values": [{"measurement": "biochemical (catalytic) inhibition of PARP1", "setting": "PARP1 [4]", "value": "maintained catalytic inhibitory activity against PARP1"}, {"measurement": "PARP1 degradation", "setting": "PARP1 [1]", "value": "not able to degrade PARP1"}]}, {"smiles": "CN(CCCCc1cn(CCOCCOCCOCCOCCNc2cccc3c2C(=O)N(C2CCC(=O)NC2=O)C3=O)nn1)Cc1ccc(-c2[nH]c3cc(F)cc4c3c2CCNC4=O)cc1", "note": "(centres unmarked) [PEG4 PROTAC, Rucaparib-Triazole-PEG4-Pomalidomide]", "values": [{"measurement": "PARP1 degradation", "setting": "PARP1 [1]", "value": "able to degrade PARP1 as efficiently as iRucaparib"}]}, {"smiles": "Cc1ncsc1-c1ccc(CNC(=O)[C@@H]2C[C@@H](O)CN2C(=O)[C@@H](NC(=O)CCOCCOCCOCCOCCn2cc(CCCCN(C)Cc3ccc(-c4[nH]c5cc(F)cc6c5c4CCNC6=O)cc3)nn2)C(C)(C)C)cc1", "note": "[VHL-Rucaparib, Rucaparib-Triazole-PEG4-VHL-Ligand]", "values": [{"measurement": "ZFP91 abundance change", "setting": "ZFP91", "value": "did not show any changes"}, {"measurement": "PARP1 downregulation", "setting": "PARP1 [5]", "value": "one of the most significantly downregulated proteins"}, {"measurement": "PARP1 degradation", "setting": "PARP1 [2]; BT549 cells, iRucaparib 5 μM or VHL-Rucaparib 20 μM", "value": "robust PARP1 degradation"}, {"measurement": "PARP1 level", "setting": "PARP1 [2]; BT-549 cells (VHL-proficient)", "value": "successfully downregulated"}, {"measurement": "PARP1 level", "setting": "PARP1 [2]; PC-3 cells (VHL-proficient), 10 μM", "value": "successfully downregulated"}]}, {"smiles": "C[C@]1(c2nc3c(C(N)=O)cccc3[nH]2)CCCN1", "note": "[Veliparib]", "values": [{"measurement": "potency in PARP1 trapping (rank order)", "setting": "PARP1 [3]", "value": "BMN673>Niraparib>Olaparib>Rucaparib>Veliparib"}]}, {"smiles": "Nc1cccc2c1C(=O)N(C1CCC(=O)NC1=O)C2=O", "note": "(centres unmarked) [pomalidomide, reference compound]", "values": [{"measurement": "overall survival (median)", "setting": "[6]", "value": 11.9, "unit": "months"}, {"measurement": "effect on PARP1 protein levels", "setting": "PARP1 [1]; 5 μM", "value": "had no effect on PARP1 protein levels"}, {"measurement": "effect on iRucaparib-induced PARP1 degradation", "setting": "PARP1 [1]", "value": "block PARP1 degradation"}]}]}
